Data: patent US10131652B2, “Pyrimidinyloxy benzene derivatives as herbicides” (E. I. DU PONT DE NEMOURS AND COMPANY, priority 2014, dated 2018)
Read-outs that look alike come from different tables or passages of the source.

Tests used:
Assay in all cases: Test E pre-/postemergence plant response
Assay type in all cases: in vivo
[1] = test system: Italian ryegrass (Lolium multiflorum); conditions: scale 0 to 100, read-out: Plant response rating, Ryegrass, Italian; for pest or weed control at 16 g/ha: 16 g ai/ha; for pest or weed control at 31 g/ha: 31 g ai/ha; for pest or weed control at 62 g/ha: 62 g ai/ha; for pest or weed control at 125 g/ha: 125 g ai/ha
Procedure, shortened: (§1)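 Pre-emergence: seeds sown in silt loam soil and sprayed with test chemicals in a non-phytotoxic solvent/surfactant mix. Post-emergence: plants at 2–18 cm (1- to 4-leaf stage) in peat/vermiculite medium treated with the same formulation. Visual rating versus controls after 7–21 days, 0 (no effect) to 100 (complete control).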

[2] = test system: deadnettle (henbit deadnettle, Lamium amplexicaule); conditions: scale 0 to 100, read-out: Plant response rating, Deadnettle; for pest or weed control at 16 g/ha: 16 g ai/ha; for pest or weed control at 31 g/ha: 31 g ai/ha; for pest or weed control at 62 g/ha: 62 g ai/ha; for pest or weed control at 125 g/ha: 125 g ai/ha
Procedure, shortened: as §1

[3] = test system: field poppy (Papaver rhoeas); conditions: scale 0 to 100, read-out: Plant response rating, Field Poppy; for pest or weed control at 16 g/ha: 16 g ai/ha; for pest or weed control at 31 g/ha: 31 g ai/ha; for pest or weed control at 62 g/ha: 62 g ai/ha; for pest or weed control at 125 g/ha: 125 g ai/ha
Procedure, shortened: as §1

[4] = test system: field violet (Viola arvensis); conditions: scale 0 to 100, read-out: Plant response rating, Field Violet; for pest or weed control at 16 g/ha: 16 g ai/ha; for pest or weed control at 31 g/ha: 31 g ai/ha; for pest or weed control at 62 g/ha: 62 g ai/ha; for pest or weed control at 125 g/ha: 125 g ai/ha
Procedure, shortened: as §1

[5] = test system: green foxtail (Setaria viridis); conditions: scale 0 to 100, read-out: Plant response rating, Foxtail, Green; for pest or weed control at 16 g/ha: 16 g ai/ha; for pest or weed control at 31 g/ha: 31 g ai/ha; for pest or weed control at 62 g/ha: 62 g ai/ha; for pest or weed control at 125 g/ha: 125 g ai/ha
Procedure, shortened: as §1

[6] = test system: lambsquarters (Chenopodium album); conditions: scale 0 to 100, read-out: Plant response rating, Lambsquarters; for pest or weed control at 16 g/ha: 16 g ai/ha; for pest or weed control at 31 g/ha: 31 g ai/ha; for pest or weed control at 62 g/ha: 62 g ai/ha; for pest or weed control at 125 g/ha: 125 g ai/ha
Procedure, shortened: as §1

[7] = test system: pigweed (Amaranthus retroflexus); conditions: scale 0 to 100, read-out: Plant response rating, Pigweed; for pest or weed control at 16 g/ha: 16 g ai/ha; for pest or weed control at 31 g/ha: 31 g ai/ha; for pest or weed control at 62 g/ha: 62 g ai/ha; for pest or weed control at 125 g/ha: 125 g ai/ha
Procedure, shortened: as §1

[8] = test system: spring wheat (Triticum aestivum); conditions: scale 0 to 100, read-out: Plant response rating, Wheat, Spring; for plant injury at 16 g/ha: 16 g ai/ha; for plant injury at 62 g/ha: 62 g ai/ha; for plant injury at 125 g/ha: 125 g ai/ha
Procedure, shortened: as §1

[9] = test system: wild buckwheat (Polygonum convolvulus); conditions: Fallopia convolvulus, scale 0 to 100, read-out: Plant response rating, Buckwheat, Wild; for pest or weed control at 16 g/ha: 16 g ai/ha; for pest or weed control at 31 g/ha: 31 g ai/ha; for pest or weed control at 62 g/ha: 62 g ai/ha; for pest or weed control at 125 g/ha: 125 g ai/ha
Procedure, shortened: as §1

[10] = test system: wild radish (Raphanus raphanistrum); conditions: scale 0 to 100, read-out: Plant response rating, Radish, Wild; for pest or weed control at 16 g/ha: 16 g ai/ha; for pest or weed control at 31 g/ha: 31 g ai/ha; for pest or weed control at 62 g/ha: 62 g ai/ha; for pest or weed control at 125 g/ha: 125 g ai/ha
Procedure, shortened: as §1

[11] = test system: winter wheat (Triticum aestivum); conditions: scale 0 to 100, read-out: Plant response rating, Wheat, Winter; for plant injury at 16 g/ha: 16 g ai/ha; for plant injury at 62 g/ha: 62 g ai/ha; for plant injury at 125 g/ha: 125 g ai/ha
Procedure, shortened: as §1

[12] = post-emergence, 31 g ai/ha, Postemergence

`FC(F)c1cc(-c2ccccc2Oc2ncc(Br)cn2)no1` [Compound 62, 5-bromo-2-[2-[5-(difluoromethyl)-3-isoxazolyl]phenoxy]pyrimidine] showed a pest or weed control at 16 g/ha ([1]; post-emergence, Postemergence) of 10%, a pest or weed control at 31 g/ha ([1]; post-emergence, Postemergence) of 20% and a pest or weed control at 62 g/ha ([1]; post-emergence, Postemergence) of 30%. For the same molecule, the pest or weed control at 125 g/ha ([1]; post-emergence, Postemergence) was 35%, the pest or weed control at 16 g/ha ([1]; pre-emergence, Preemergence) was 0% and the pest or weed control at 31 g/ha ([1]; pre-emergence, Preemergence) was 0%. The pest or weed control at 62 g/ha ([1]; pre-emergence, Preemergence) was 15%, the pest or weed control at 125 g/ha ([1]; pre-emergence, Preemergence) was 25% and the pest or weed control at 16 g/ha ([2]; post-emergence, Postemergence) was 35%. It also gave a pest or weed control at 31 g/ha ([2]; post-emergence, Postemergence) of 35%, a pest or weed control at 62 g/ha ([2]; post-emergence, Postemergence) of 65% and a pest or weed control at 125 g/ha ([2]; post-emergence, Postemergence) of 70%. For the same molecule, the pest or weed control at 16 g/ha ([2]; pre-emergence, Preemergence) was 15%, the pest or weed control at 31 g/ha ([2]; pre-emergence, Preemergence) was 20% and the pest or weed control at 62 g/ha ([2]; pre-emergence, Preemergence) was 40%. For the same molecule, the pest or weed control at 125 g/ha ([2]; pre-emergence, Preemergence) was 100%, the pest or weed control at 16 g/ha ([3]; post-emergence, Postemergence) was 40% and the pest or weed control at 31 g/ha ([3]; post-emergence, Postemergence) was 55%. It also gave a pest or weed control at 62 g/ha ([3]; post-emergence, Postemergence) of 70%, a pest or weed control at 125 g/ha ([3]; post-emergence, Postemergence) of 75% and a pest or weed control at 16 g/ha ([3]; pre-emergence, Preemergence) of 65%. It also gave a pest or weed control at 31 g/ha ([3]; pre-emergence, Preemergence) of 75%, a pest or weed control at 62 g/ha ([3]; pre-emergence, Preemergence) of 100% and a pest or weed control at 125 g/ha ([3]; pre-emergence, Preemergence) of 100%. It also gave a pest or weed control at 16 g/ha ([4]; post-emergence, Postemergence) of 60%, a pest or weed control at 31 g/ha ([4]; post-emergence, Postemergence) of 65% and a pest or weed control at 62 g/ha ([4]; post-emergence, Postemergence) of 70%. It also gave a pest or weed control at 125 g/ha ([4]; post-emergence, Postemergence) of 85%, a pest or weed control at 16 g/ha ([4]; pre-emergence, Preemergence) of 0% and a pest or weed control at 31 g/ha ([4]; pre-emergence, Preemergence) of 10%. It also gave a pest or weed control at 62 g/ha ([4]; pre-emergence, Preemergence) of 35%, a pest or weed control at 125 g/ha ([4]; pre-emergence, Preemergence) of 100% and a pest or weed control at 16 g/ha ([5]; post-emergence, Postemergence) of 15%. It also gave a pest or weed control at 31 g/ha ([5]; post-emergence, Postemergence) of 20%, a pest or weed control at 62 g/ha ([5]; post-emergence, Postemergence) of 25% and a pest or weed control at 125 g/ha ([5]; post-emergence, Postemergence) of 65%. It also gave a pest or weed control at 16 g/ha ([5]; pre-emergence, Preemergence) of 20%, a pest or weed control at 31 g/ha ([5]; pre-emergence, Preemergence) of 40% and a pest or weed control at 62 g/ha ([5]; pre-emergence, Preemergence) of 65%. It also gave a pest or weed control at 125 g/ha ([5]; pre-emergence, Preemergence) of 85%, a pest or weed control at 16 g/ha ([6]; post-emergence, Postemergence) of 75% and a pest or weed control at 31 g/ha ([6]; post-emergence, Postemergence) of 95%. For the same molecule, the pest or weed control at 62 g/ha ([6]; post-emergence, Postemergence) was 95%, the pest or weed control at 125 g/ha ([6]; post-emergence, Postemergence) was 95% and the pest or weed control at 16 g/ha ([6]; pre-emergence, Preemergence) was 35%. It also gave a pest or weed control at 31 g/ha ([6]; pre-emergence, Preemergence) of 85%, a pest or weed control at 62 g/ha ([6]; pre-emergence, Preemergence) of 95% and a pest or weed control at 125 g/ha ([6]; pre-emergence, Preemergence) of 100%. For the same molecule, the pest or weed control at 16 g/ha ([7]; post-emergence, Postemergence) was 90%, the pest or weed control at 31 g/ha ([7]; post-emergence, Postemergence) was 90% and the pest or weed control at 62 g/ha ([7]; post-emergence, Postemergence) was 95%. It also gave a pest or weed control at 125 g/ha ([7]; post-emergence, Postemergence) of 95%, a pest or weed control at 16 g/ha ([7]; pre-emergence, Preemergence) of 95% and a pest or weed control at 31 g/ha ([7]; pre-emergence, Preemergence) of 100%. For the same molecule, the pest or weed control at 62 g/ha ([7]; pre-emergence, Preemergence) was 100%, the pest or weed control at 125 g/ha ([7]; pre-emergence, Preemergence) was 100% and the plant injury at 16 g/ha ([8]; post-emergence, Postemergence) was 5%. It also gave a plant injury at 31 g/ha [8, 12] of 20%, a plant injury at 62 g/ha ([8]; post-emergence, Postemergence) of 25% and a plant injury at 125 g/ha ([8]; post-emergence, Postemergence) of 40%. For the same molecule, the plant injury at 16 g/ha ([8]; pre-emergence, Preemergence) was 0%, the plant injury at 62 g/ha ([8]; pre-emergence, Preemergence) was 0% and the plant injury at 125 g/ha ([8]; pre-emergence, Preemergence) was 10%. The pest or weed control at 16 g/ha ([9]; post-emergence, Postemergence) was 75%, the pest or weed control at 31 g/ha ([9]; post-emergence, Postemergence) was 80% and the pest or weed control at 62 g/ha ([9]; post-emergence, Postemergence) was 95%. It also gave a pest or weed control at 125 g/ha ([9]; post-emergence, Postemergence) of 100%, a pest or weed control at 16 g/ha ([9]; pre-emergence, Preemergence) of 25% and a pest or weed control at 31 g/ha ([9]; pre-emergence, Preemergence) of 35%. It also gave a pest or weed control at 62 g/ha ([9]; pre-emergence, Preemergence) of 80%, a pest or weed control at 125 g/ha ([9]; pre-emergence, Preemergence) of 100% and a pest or weed control at 16 g/ha ([10]; post-emergence, Postemergence) of 65%. It also gave a pest or weed control at 31 g/ha ([10]; post-emergence, Postemergence) of 70%, a pest or weed control at 62 g/ha ([10]; post-emergence, Postemergence) of 90% and a pest or weed control at 125 g/ha ([10]; post-emergence, Postemergence) of 100%. The pest or weed control at 16 g/ha ([10]; pre-emergence, Preemergence) was 25%, the pest or weed control at 31 g/ha ([10]; pre-emergence, Preemergence) was 40% and the pest or weed control at 62 g/ha ([10]; pre-emergence, Preemergence) was 95%. It also gave a pest or weed control at 125 g/ha ([10]; pre-emergence, Preemergence) of 100%, a plant injury at 16 g/ha ([11]; post-emergence, Postemergence) of 10% and a plant injury at 31 g/ha [11, 12] of 20%. It also gave a plant injury at 62 g/ha ([11]; post-emergence, Postemergence) of 30%, a plant injury at 125 g/ha ([11]; post-emergence, Postemergence) of 35% and a plant injury at 16 g/ha ([11]; pre-emergence, Preemergence) of 0%. It also gave a plant injury at 62 g/ha ([11]; pre-emergence, Preemergence) of 0% and a plant injury at 125 g/ha ([11]; pre-emergence, Preemergence) of 5%.
